One experiment deals with C57BL/KsJ-db/db mice. The experiment is described as follows: Blood sugar and triglyceride lowering in db/db mice. The experiment is classed as in vivo, mouse. From the text:
Mutation in colonies of laboratory animals and different sensitivities to dietary regimens have made the development of animal models with non-insulin dependent diabetes and hyperlipidemia associated with obesity and insulin resistance possible. Genetic models such as db/db and ob/ob (Diabetes, (1982) 31 (1): 1-6) mice and zucker fa/fa rates have been developed by the various laboratories for understanding the pathophysiology of disease and testing the efficacy of new antidiabetic compounds (Diabetes, (1983) 32: 830-838; Annu. Rep. Sankyo Res. Lab. (1994). 46: 1-57). The homozygous animals, C57 BL/KsJ-db/db mice developed by Jackson Laboratory, U.S., are obese, hyperglycemic, hyperinsulinemic and insulin resistant (J. Clin. Invest., (1990) 85: 962-967), whereas heterozygous are lean and normoglycemic. In db/db model, mouse progressively develops insulinopenia with age, a feature commonly observed in late stages of human type II diabetes when blood sugar levels are insufficiently controlled. The state of pancreas and its course vary according to the models. Since this model resembles that of type II diabetes mellitus, the compounds of the present invention were tested for blood sugar and triglycerides lowering activities.
Male C57BL/KsJ-db/db mice of 8 to 14 weeks age, having body weight range of 35 to 60 grams, bred at Dr. Reddy's Research Foundation (DRF) animal house, were used in the experiment. The mice were provided with standard feed (National Institute of Nutrition (NIN), Hyderabad, India) and acidified water, ad libitum. The animals having more than 350 mg/dl blood sugar were used for testing. The number of animals in each group was 4.
Test compounds were suspended on 0.25% carboxymethyl cellulose and administered to test group at a dose of 0.1 mg to 30 mg/kg through oral gavage daily for 6 days. The control group received vehicle (dose 10 mL/kg). On 6 th day the blood samples were collected one hour after administration of test compounds/vehicle for assessing the biological activity.
The random blood sugar and triglyceride levels were measured by collecting blood ([…]) through orbital sinus, using heparinised capillary in tubes containing EDTA which was centrifuged to obtain plasma. The plasma glucose and triglyceride levels were measured spectrometrically, by glucose oxidase and glycerol-3-PO4 oxidase/peroxidase enzyme (Dr. Reddy's Lab. Diagnostic Division Kits, Hyderabad, India) methods respectively.
The blood sugar and triglycerides lowering activities of the test compound was calculated according to the formula.
(§1) 1. Percent reduction in Blood sugar/triglycerides/total cholesterol were calculated according to the formula: [formula]

A further experiment has as its system Swiss albino mice. The experiment is described as follows: Plasma triglyceride lowering activity in Swiss albino mice and Guinea pigs. The format is in vivo, mouse. The note with it: dose 1 mg (mg/kg), oral, 6 days; table follows the Swiss albino mice / Guinea pig section. The method, then: Male Swiss albino mice (SAM) and male Guinea pigs were obtained from NIN and housed in DRF animal house. All these animals were maintained under 12 hour light and dark cycle at 25±1° C. Animals were given standard laboratory chow (NIN, Hyderabad, India) and water, ad libitum, SAM of 20-25 g body weight range and Guinea pigs of 500-700 g body weight range were used (Oliver, P., Plancke, M. O., Marzin. D., Clavey, V., Sauzieres, J and Fruchart, J. C. Effects of fenofibrate, gemfibrozil and nicotinic acid on plasma lipoprotein levels in normal and hyperlipidemic mice. Atherosclerosis. 1988. 70: 107-114).
The test compounds were administered orally to Swiss albino mice at 0.3 to 30 mg/kg/day dose for 6 days. Control mice were treated with vehicle (0.25% Carboxymethylcellulose; dose 10 mL/kg). The test compounds were administered orally to Guinea pigs at 0.3 to 30 mg/kg/day dose for 6 days. Control animals were treated with vehicle (0.25% Carboxymethylcellulose; dose 5 mL/kg).
The blood samples were collected in fed state 1 hour after drug administration on 0 and 6 day of treatment. The blood was collected from the retro-orbital sinus through heparinised capillary in EDTA containing tubes. After centrifugation, plasma sample was separation for triglyceride and total cholesterol (Wieland, O. Methods of Enzymatic analysis. Bergemeyer, H. O., Ed., 1963. 211-214; Trinder, P. Ann. Clin. Biochem. 1969. 6: 24-27). Measurement of plasma triglyceride, total cholesterol and HDL were done using commercial kits (Dr. Reddy's Diagnostic Division, Hyderabad, India).
as §1

The target of a further experiment is T1, hPPARα (Homo sapiens, UniProt Q07869).
T1 construct: expressed in transfected cells; host or cells: HEK-293
T1 sequence (Q07869 239-466 limits assumed): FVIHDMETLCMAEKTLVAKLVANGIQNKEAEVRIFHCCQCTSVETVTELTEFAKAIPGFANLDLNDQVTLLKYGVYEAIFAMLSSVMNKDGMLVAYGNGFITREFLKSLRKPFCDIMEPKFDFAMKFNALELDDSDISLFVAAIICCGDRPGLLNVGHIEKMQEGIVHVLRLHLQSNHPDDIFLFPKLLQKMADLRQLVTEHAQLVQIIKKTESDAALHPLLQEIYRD
Kind of experiment: Determination of hPPARα activity (GAL4 fusion luciferase reporter, HEK-293). The experiment is classed as cell-based. The conditions noted are these: 50 μM compound; HEK-293 cells, GAL4-hPPARα LBD reporter. The method, then:
Ligand binding domain of hPPARα was fused to DNA binding domain of Yeast transcription factor GAL4 in eucaryotic expression vector. Using superfect (Qiagen, Germany) as transfecting reagent HEK-293 cells were transfected with this plasmid and a reporter plasmid harboring the luciferase gene driven by a GAL4 specific promoter. Compound was added at different concentrations after 42 hrs of transfection and incubated overnight.
(Reporter assays use an easily measured gene product as a stand-in for the process of interest.)

A further experiment addresses T2, hPPARγ1 (Homo sapiens, UniProt P37231).
T2 construct: expressed in transfected cells; host or cells: HEK-293
T2 sequence (P37231 238-503 limits assumed): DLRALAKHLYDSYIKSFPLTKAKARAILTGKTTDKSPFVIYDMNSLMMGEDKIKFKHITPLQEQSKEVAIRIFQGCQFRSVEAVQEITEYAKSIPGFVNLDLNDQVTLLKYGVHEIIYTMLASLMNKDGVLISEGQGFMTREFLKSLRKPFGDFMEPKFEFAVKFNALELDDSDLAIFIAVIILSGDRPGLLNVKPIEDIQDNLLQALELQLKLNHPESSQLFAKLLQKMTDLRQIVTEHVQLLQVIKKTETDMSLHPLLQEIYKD
The experiment is described as follows: Determination of hPPARγ activity (GAL4 fusion luciferase reporter, HEK-293). The experiment is classed as cell-based. The note with it: 1 μM compound; HEK-293 cells, GAL4-hPPARγ1 LBD reporter. The method, then:
Ligand binding domain of hPPARγ1 was fused to DNA binding domain of Yeast transcription factor GAL4 in eucaryotic expression vector. Using lipofectamine (Gibco BRL, USA) as transfecting reagent HEK-293 cells were transfected with this plasmid and a reporter plasmid harboring the luciferase gene driven by a GAL4 specific promoter. Compound was added at 1 μM concentration after 48 hrs of transfection and incubated overnight.

Setting [1] is: 1 mg/kg oral gavage daily for 6 days.
[2] abbreviates: 10 mg/kg oral gavage daily for 6 days.
The mark [3] stands for this setting: 3 mg/kg oral gavage daily for 6 days.

Regarding `CCOC(Cc1ccc(OCCN2c3ccccc3Oc3ccccc32)cc1)C(=O)O.N=C(N)NCCC[C@H](N)C(=O)O` (single isomer, unassigned; (-)) [Example 28, (−) 3-[4-[2-(Phenoxazin-10-yl)ethoxy]phenyl]-2-ethoxypropanoic acid, arginine salt], in the experiment with C57BL/KsJ-db/db mice (setting [1]), the “Reduction in Blood Glucose Level (%)” value is given as 40% and the “Triglyceride Lowering (%)” value came out at 40%. Further, in the experiment on Swiss albino mice, the “Triglyceride Lowering (%)” value was 22%.
On to `CC(Cc1ccc(OCCN2c3ccccc3Oc3ccccc32)cc1)(Oc1ccccc1)C(=O)[O-].[Na+]` (racemic) [Example 30, (±)3-[4-[2-(Phenoxazin-10-yl)ethoxy]phenyl]-2-phenoxy-2-methylpropanoic acid, sodium salt], for which, in the experiment with C57BL/KsJ-db/db mice (setting [1]), the “Reduction in Blood Glucose Level (%)” value stood at 44% and the “Triglyceride Lowering (%)” value came to 05%. Further, the “PPARα (fold activation, luciferase activity)” value on hPPARα was determined as 9.3 Fold. Further, the “Triglyceride Lowering (%)” value in the experiment with Swiss albino mice is given as 58%. Also, the “PPARγ (fold activation, luciferase activity)” value on hPPARγ1 is 13.9 Fold.
Take `CCOC(Cc1ccc(OCCN2c3ccccc3Sc3ccccc32)cc1)C(=O)O` (racemic) [Example 11, (±) 3-[4-[2-(Phenothiazin-10-yl)ethoxy]phenyl]-2-ethoxypropanoic acid]: in the experiment on C57BL/KsJ-db/db mice (setting [2]), the “Reduction in Blood Glucose Level (%)” value is listed as 66% and the “Triglyceride Lowering (%)” value is on record as 50%. Further, the “PPARα (fold activation, luciferase activity)” value at hPPARα is recorded as 6.42 Fold. The “PPARγ (fold activation, luciferase activity)” value at hPPARγ1 turned out to be 5.20 Fold.
For “(−) 3-[4-[2-(Phenoxazin-10-yl)ethoxy]phenyl]-2-ethoxypropanoic acid, magnesium salt [Example 25]”, the “Triglyceride Lowering (%)” value with Swiss albino mice came to 6%.
Take `CCOC(Cc1ccc2oc(CN3c4ccccc4Sc4ccccc43)cc2c1)C(=O)[O-].[Na+]` (racemic) [Example 14, (±) 3-[2-(Phenothiazin-10-yl)methylbenzofuran-5-yl]-2-ethoxypropanoic acid, sodium salt]: in the experiment on C57BL/KsJ-db/db mice (setting [3]), the “Reduction in Blood Glucose Level (%)” value came out at 52% and the “Triglyceride Lowering (%)” value is 61%.
